Data on two molecules can be found in US8871232B2, “Self-indicating wipe for removing bacteria from a surface” (Kimberly-Clark Worldwide, Inc., priority 2007, dated 2014).

One experiment deals with live culture yogurt. The experiment is described as follows: Colour change of Reichardt's dye lines on paper towel after wiping a contaminated cutting board. As to conditions: VIVA paper towels sprayed with saturated Reichardt's dye in isopropanol with potassium hydroxide; cutting board with light smears of live culture yogurt. From the text: Sheets of VIVA® paper towels (Kimberly-Clark Corporation, Neenah Wis.) were placed on a flat surface, three sheets wide. A stainless steel grilling grate (Weber Company, purchased from Home Depot store) was placed onto top of the sheets. Next a 100-milliliter saturated solution of Reichardt's dye in isopropanol with 10 milliliters of potassium hydroxide was placed into a container and then sprayed (Chromist sprayer) over the grilling grate with the VIVA® towels underneath. The grilling grate was removed and the towels were hung in a fumehood and allowed to dry. The paper towels now had multiple parallel lines of the Reichardt's dye across the paper towel. The lines were 4 centimeters apart. Onto a cutting board surface (plastic cutting boards, Kroger grocery store) was applied light smears (3 cm×15 cm) of live culture yogurt. Next, the treated VIVA® paper towels were used to wipe the surface of the cutting board.

For another experiment, the system named is S. aureus. The experiment is described as follows: Wipe test: removal of S. aureus from ceramic tile and transfer to clean tile, visualised with indicator spray. As to conditions: WTCL wipe treated with aluminum chlorohydrate (1% W/W, add-on approx. 6 to 7%) and 1% Reichardt's dye dots; 100 microliter drops of 10^7 CFU/ml S. aureus on ceramic tile; control wipe's "X" readily visible. The method, then:
A wire-textured coform laminate (WTCL) was treated with aluminum chlorohydrate (1% W/W) using a dip and nip procedure, with a resulting add-on of approximately 6 to 7%. The treated WTCL was then treated with a 1% solution of Reichardt's dye indicator (prepared in acetonitrile) in a small dot pattern using a syringe. Control WTCL wipe material without aluminum chlorohydrate was also used for this experiment as a control. Two 100 microliter drops of 10^7 CFU/ml S. aureus were placed onto a ceramic tile. Treated wipe and control material were both used to wipe the drop off of the tile. These wipes were then used to make an “X” onto clean tiles. These tiles were then sprayed with bacterial indicator solution (80 mg/10 mL acetonitrile) using a Chromist® spray can. The treated WTCL was then also sprayed with the indicator. Finally, the treated wipe (now clearly visible) containing the bacteria was once again used to wipe a clean area of tile. This area was then sprayed with the indicator. The “X” for the control was readily visible.

On to `[O-]c1c(-c2ccccc2)cc(-[n+]2c(-c3ccccc3)cc(-c3ccccc3)cc2-c2ccccc2)cc1-c1ccccc1` [Reichardt's dye, 4-(2,4,6-triphenylpyridinium-1-yl)-2,6-diphenylphenolate], for which the “color of the Reichardt's dye lines on contact with contaminated surface” value in the experiment with live culture yogurt is on record as “rapidly discharged”.

On to aluminum chlorohydrate, for which the “transfer of bacteria from used wipe to clean tile” value in the experiment on S. aureus was “did not transfer bacteria to the clean tile”.
